Experimental findings from PMC5309245, “Discovery and Characterization of Diazenylaryl Sulfonic Acids as Inhibitors of Viral and Bacterial Neuraminidases” (Frontiers in Microbiology, 2017) are described below.

Each structure is given as a SMILES string.

Assay [1] has as its system influenza virus A/WSN/33 NA-I427Q.
For assay [2], the system named is influenza virus A/WSN/33 NA-I427M.
The target in assay [3] is influenza virus A/WSN/33 NA-Q136L (Influenza A virus, UniProt P03470, Q120L). The class given is biochemical, influenza A virus A/WSN/1933 (H1N1).
The target of assay [4] is influenza virus A/WSN/33 NA-H274Y (Influenza A virus, UniProt P03470, H259Y). The assay is classed as biochemical, influenza A virus A/WSN/1933 (H1N1).
In assay [5] the target is influenza virus A/WSN/33 NA-N294S (Influenza A virus, UniProt P03470, N279S). The class given is biochemical, influenza A virus A/WSN/1933 (H1N1).
The target of assay [6] is influenza virus A/WSN/33 NA-Y155H (Influenza A virus, UniProt P03470, Y139H). The assay is classed as biochemical, influenza A virus A/WSN/1933 (H1N1).
Assay [7] deals with influenza virus A/WSN/33 NA-I427Q (Influenza A virus, UniProt P03470, I411Q). Conditions: read-out: IC50, NA-I427Q.
Assay [8] addresses influenza virus A/WSN/33 NA-I427M (Influenza A virus, UniProt P03470, I411M). The settings on record: read-out: IC50, NA-I427M.
The target in assay [9] is IAV WSN/33 NA-wt (whole virus) (Influenza A virus, UniProt P03470). As to the kind of experiment: biochemical. On the set-up: species or system influenza A virus A/WSN/1933 (H1N1). Conditions: read-out: IC50, NA-wt.

Take `Cc1cc(N=Nc2ccc(N=Nc3c(O)c(S(=O)(=O)O)cc4cc(S(=O)(=O)O)ccc34)cc2C)ccc1N=Nc1ccc2cc(S(=O)(=O)O)cc(S(=O)(=O)O)c2c1` [Compound 1, 7-[2-[4-[2-[4-[2-(2-hydroxy-3,6-disulfo-1-naphthalenyl)diazenyl]-2-methylphenyl]diazenyl]-2-methylphenyl]diazenyl]-1,3-naphthalenedisulfonic acid]: in [1], the “FC, NA-I427Q” value is on record as 1. In addition, the “FC, NA-I427M” value in assay [2] was 2. For the same molecule, the “FC, NA-Q136L” value in assay [3] came to 2. The “FC, NA-H274Y” value in assay [4] came out at 3. The “FC, NA-N294S” value in [5] amounted to 1. Further, in assay [6], the “FC, NA-Y155H” value was 1.
Turning to `O=S(=O)(O)c1ccc2c(/N=N/c3ccc(Sc4ccc(/N=N/c5c(O)ccc6cc(S(=O)(=O)O)ccc56)cc4)cc3)c(O)ccc2c1` [Compound 2], in assay [1], the “FC, NA-I427Q” value was determined as 1. In addition, the “FC, NA-I427M” value in [2] was found to be 1. Further, in [3], the “FC, NA-Q136L” value came to 2. Also, the “FC, NA-H274Y” value in assay [4] was found to be 2. The “FC, NA-N294S” value in assay [5] stood at 1. Moreover, in assay [6], the “FC, NA-Y155H” value is on record as 0.2.
For `Cc1ccccc1/N=N/c1ccc(/N=N/c2c(O)ccc3cc(S(=O)(=O)O)cc(S(=O)(=O)O)c23)c(C)c1` [Compound 5], in assay [1], the “FC, NA-I427Q” value stood at 2. The “FC, NA-I427M” value in assay [2] amounted to 2. Besides, in [3], the “FC, NA-Q136L” value came to 2. The “FC, NA-H274Y” value in [4] is listed as 3. Further, the “FC, NA-N294S” value in assay [5] is reported as 3. Moreover, the “FC, NA-Y155H” value in assay [6] is on record as 1.
With `CC(=O)N[C@H]1[C@H]([C@H](O)[C@H](O)CO)OC(C(=O)O)=C[C@@H]1O` [DANA, 2,3-dehydro-2-deoxy-N-acetylneuraminic acid, reference compound], the half-maximal inhibitory concentration (IC50) (as a rule, the point on the concentration scale where inhibition reaches its midpoint) in [7] was determined as 12800 ± 750 nM; in assay [8] it was 2210 ± 620 nM; in [3] it was 2330 ± 1320 nM; in [4], 2510 ± 1380 nM; in [5], 8120 ± 2070 nM; in assay [6], 8360 ± 3130 nM. The IC50 in assay [9] was determined as 2440 ± 1080 nM. For the same molecule, the “FC, NA-I427M” value in [2] stood at 1. For the same molecule, the “FC, NA-Q136L” value in assay [3] was found to be 1. In addition, in [4], the “FC, NA-H274Y” value is reported as 1. In addition, the “FC, NA-N294S” value in assay [5] is 3. Moreover, the “FC, NA-Y155H” value in assay [6] is listed as 3.
